The text below walks through data of patent publication US6649615B2, “Method for inhibiting fibrogenesis” (Institute National de la Sante et de la Recherche Medicale …, priority 2002, dated 2003).

The test system of data set [1] is TIMP-1 mRNA. Kind of data set: TIMP-1 mRNA expression by cultured HSC-T6 cells (Northern blot). In kind it is cell-based, rat. To be noted: mean ±SEM. The procedure:
(§1) The inventors used an established rat HSC cell line, named HSC-T6.
TIMP-1 increases fibrosis deposition by inhibiting its degradation by matrix metalloproteinases. The inventors observed in example 1 that noradrenergic antagonism in vivo led to a drastic decrease in liver TIMP-1 mRNA expression. They have further measured the effect of norepinephrin on TIMP-1 mRNA expression by cultured HSC-T6 cells. Total RNA was purified from cells exposed for 3, 6, or 24 hours to 100 nM norepinephrin. The RNAs were analyzed by Northern blot with a probe specific for rat TIMP-1. The blots were subsequently dehybridized and rehybridized with a probe to rat glyceraldehyde 3-phosphate dehydrogenase to ensure proper loading and transfer. TIMP-1/GADPH ratios were calculated and the results are shown respective to control values without norepinephrin.
Results are expressed as TIMP-1/GAPDH ratios relative to control values (mean ±SEM)

Data set [2] concerns HSC-T6. Kind of data set: Hepatic stellate cell proliferation assay (tetrazolium dye reduction). In kind it is cell-based, rat. As to the method:
FIG. 3: Effect of norepinephrin on hepatic stellate cell (HSC) proliferation. Cells were exposed to increasing concentrations of norepinephrin for 2 days. Cell number was evaluated through the measurement of the reduction of the dye 3-(4,5-dimethylthiazol-2yl)-2,5 diphenyltetrazolium.
FIG. 4: Effect of prazosin on hepatic stellate cell proliferation induced by norepinephrin Cells were exposed to increasing concentrations of prazosin, either alone (open symbols), or in the presence of 100 nM norepinephrin (closed symbols). Cell number was evaluated through the measurement of the reduction of the dye 3-(4,5-dimethylthiazol-2yl)-2,5 diphenyltetrazolium. The marginal proliferation index was calculated as: (ODexperimental sample—ODday 0)/(ODcontrol—ODday 0), where OD is the optical density measured at the end of the experiment.
as §1
Cells were exposed to increasing concentrations of norepinephrin for 2 days. In some experiments, cells were also exposed to increasing concentrations of prazosin. Cell number was evaluated through the measurement of the reduction of the dye 3-(4,5-dimethylthiazol-2yl)-2,5 diphenyltetrazolium.

Data set [3] concerns type I collagen mRNA. Kind of data set: Liver type I collagen transcripts (quantitative RT-PCR, in situ hybridization). It counts as in vivo, rat. To be noted: CCl4 with prazosin, 2 weeks. The procedure: In situ hybridization was performed on frozen sections according to a protocol described earlier, using [α^33P]UTP labeled riboprobes (Faouzi et al., 1999). The probe used was a 900 bp fragment of the rat α2(I) collagen cDNA, (Genovese et aL, 1984). The cDNA was subcloned into the pGEM5Z f(+) vector. Antisense and sense probes were generated by in vitro transcription. Their size was reduced to ˜250 nt by alkaline hydrolysis.
Total RNA was prepared from liver samples by the method of Chomczynski and Sacchi (1987), modified as described by Puissant and Houdebine (1990).
Type I collagen specific transcripts were quantified by a technique of quantitative RT-PCR, that has previously been described in detail (Bieche et al., 2000). Each sample was normalized on the basis of its expression of the RPLPO gene (also known as 36B4, encoding human acidic ribosomal phosphoprotein P0).

Data set [4] concerns CCl4-induced liver fibrosis. Kind of data set: CCl4-induced liver fibrosis in rats, fibrosis area by Picro Sirius red image analysis. It counts as in vivo, rat. Particulars: 2 weeks. The procedure: All experiments were carried out using accepted ethical guidelines. Male Wistar rats (Charles River, St Aubin-les-Elbeuf, France) weighing 200-250 g were used in this study. The animals had free access to food and drinking water. Fibrosis was induced by giving CCl4 (Sigma, St Quentin-Fallavier, France) mixed with olive oil (1vol: 5vol.) at 0.375 ml/kg body weight by gavage, three times a week, on Monday, Wednesday and Friday. Control animals for CCl4 received only olive oil.
Sympathetic chemical denervation was performed with OHDA (Sigma). OHDA was freshly prepared in saline containing 0.4% (w/v) ascorbic acid (Sigma). OHDA was administered intraperitoneally, twice a week on 2 consecutive days (Monday and Tuesday) at the dose of 25 mg/kg body weight. The first injection was given 4 to 6 hours before the first administration of CCl4. Control animals for OHDA received only the solvent.
Thus, 4 groups including each 6 animals could be distinguished. Group I: olive oil and saline alone; group II: olive oil and OHDA alone; group III: CCl4 with saline; group IV: CCl4 with OHDA. These animals were treated for 2 weeks. In another series of experiments, animals were similarly treated for 6 weeks. In that case, both control groups included only 3 animals.
Finally, other animals were treated with the specific α1-adrenergic receptor antagonist prazosin (Sigma), given in drinking water daily at a dose of 50 mg/l during 2 weeks. Group V animals received CCl4 alone, while group VI received CCl4 with prazosin. Both groups included 6 animals.
At the designated time points, the animals were sacrificed. Liver samples were taken from several lobes and either snap frozen in liquid nitrogen, cryopreserved in OCT compound (Sakura, Torrance, Calif.) and snap-frozen in liquid nitrogen-cooled isopentane, or fixed in buffered formalin.
This was done on formalin-fixed, paraffin-embedded sections stained with Picro Sirius red, using image analysis. All samples from a series of experiments were stained simultaneously. Quantitative data were obtained using a computerized image analysis system (Biocom 500, Les Ulis, France) including a personal computer (DESK PRO, Compaq, Houston, Tex.), a CCD video camera (Sony, Japan) and a Zeiss microscope (Jena, Germany). Sampling corresponded to 3 sections from 3 different lobes. The analysis was performed on an average of 50 fields per section using the ×4 objective. The whole surface of the sections was used for analysis with the exception of large centrolobular veins (diameter ≧150 μm) and large portal tracts. Fibrosis deposition was expressed as a percentage of stained areas on the total measured area.
Interassay variation was calculated in preliminary experiments and found to be 1.4%. When the percentage of reduction in areas of fibrosis consecutive to treatments was calculated, control values were first substracted.

In data set [5] the test system is CCl4-induced hepatocyte necrosis. Kind of data set: Acute toxicity of CCl4: liver function tests and area of necrosis. Particulars: co-treatment with CCl4 vs CCl4 alone.
Method: Routine liver function blood tests (bilirubin, alkaline phosphatase and transaminases) were performed on an automated analyzer.
Thus, groups of animals treated with 2 administrations of CCl4 with or without 2 injections of OHDA were sacrificed 24 hours after the second CCl4 treatment and evaluated for acute toxicity of CCl4 by serum tests and measurement of the area of necrosis on liver sections.
The percentage of necrosis area was determined on hematoxylin and eosin stained sections by image analysis.

On to “TGFβ1: transforming growth factor β1, a major agonist of liver fibrogenesis”, for which the “TIMP-1/GAPDH ratio relative to control” value is on record as 1,56 ± 0,20 in data set [1] (TGFβ1 0,1 ng/ml, 3 h); 1,38 ± 0,11 in data set [1] (TGFβ1 0,1 ng/ml, 6 h); 1,33 ± 0,09 in data set [1] (TGFβ1 0,1 ng/ml, 24 h).

As for `NC[C@H](O)c1ccc(O)c(O)c1` [norepinephrin], the “TIMP-1/GAPDH ratio relative to control” value is 1,30 ± 0,15 in data set [1] (Norepinephrin 100 nM, 3 h); 1,38 ± 0,13 in data set [1] (Norepinephrin 100 nM, 6 h); 1,15 ± 0,18 in data set [1] (Norepinephrin 100 nM, 24 h). The “concentration at plateau of HSC-T6 proliferation increase” value in data set [2] (2 days exposure) came to 100 nM. Also, in data set [2] (Rattus norvegicus, HSC-T6, 48 h, 2 days exposure, mean of 5 independent experiments in triplicate, read-out: Half-maximal effect on HSC-T6 proliferation), the EC50 is 25 nM.

As to `COc1cc2nc(N3CCN(C(=O)c4ccco4)CC3)nc(N)c2cc1OC` [prazosin, 1-(4-amino-6,7-dimethoxy-2-quinazolinyl)-4-(2-furanylcarbonyl) piperazine], the “type I collagen transcripts by in situ hybridization” value in data set [3] is given as “large decrease in transcripts”. Also, the “effect on mitogenic effect of norepinephrin on HSC-T6” value in data set [2] (in the presence of 100 nM norepinephrin, 3 independent experiments in quadruplicate) is “abolished”. In data set [2] (without norepinephrin), the “effect on HSC-T6 proliferation alone” value is listed as “no effect”. Also, the “fibrosis area (histomorphometry)” value in data set [4] (CCl4 with prazosin 50 mg/l in drinking water (group VI), CCl4 alone 2.35±0.41%) stood at 0.89±0.21%. For the same molecule, the “decrease in fibrosis area” value in data set [4] (prazosin with CCl4 vs CCl4 alone) was 83%. Moreover, in data set [5], the “effect on the acute toxicity of CCl4 (biological tests and necrosis area)” value was “did not decrease”.
